Data: PMC9674958 (Proceedings of the National Academy of Sciences of the …, 2022)

Assays:
[1] = tested on: tyrosinase (TYR) of Q. spinosa; assay: absorbance at […] nm, Lineweaver-Burk fit; format: biochemical, Quasipaa spinosa; conditions: 15 uM CuSO4, 50 mM Na2HPO4, pH 6.2; L-DOPA 0.625-10 mM
[2] = tested on: tyrosinase (TYR) of N. parkeri; assay: absorbance at […] nm, Lineweaver-Burk fit; format: biochemical, Nanorana parkeri; conditions: 15 uM CuSO4, 50 mM Na2HPO4, pH 6.2; L-DOPA 0.625-10 mM

## N[C@@H](Cc1ccc(O)c(O)c1)C(=O)O [L-DOPA]
[1]
  Km: 0.1663 ± 0.117 mM/L
[2]
  Km: 0.130 ± 0.073 mM/L
